Test results from patent publication US20100069302A1, “SPECIFIC THERAPY AND MEDICAMENT USING INTEGRIN LIGANDS FOR TREATING CANCER” (priority 2007, published 2010).
“And” between values parts separate entries of the source, which are not always exact repeats. Identical values can stand only once. “Also recorded” adds a separate entry of the source.

Tests used:
[1] = system: U251 human glioblastoma cells; test: Rat orthotopic glioblastoma model radiotherapy, cilengitide scheduling experiments; format: in vivo, NIH mu nude rats; conditions: for Days Post Implant (survival): listed as Rt + EMD, 4 mg/kg
Experimental: NIH mu nude rats are anaesthetized, restrained, and injected intracerebrally 1 mm retro orbitally, 3 mm to the right of the bregma and at a depth of 2.5 mm with 5×10E5 U251 human glioblastoma cells suspended in 10 ul of culture medium, using a #2701 Hamilton syringe fitted with a 26 gauge needle, essentially as previously described (Engebraaten et al., 1999). After 14 days, cilengitide (4 mg/kg) is given as an intraperitoneal bolus in PBS, at various time (8 h, 4 h, 2 h, 1 h) prior to a single treatment with single, collimated, dorsal-ventral beam of 6 MV x-rays, so that 95-100% of the central axis dose of 25 Gy hit the tumor volume (Kim et al., 1999). Each of the 7 subsequent days the animals also received an identical i.p. bolus of cilengitide. The animals are maintained under ad libitum food and drink until they become moribund, or are sampled for tissue analysis (in the t-4 and t-8 h groups, where the animals are healthy past 230 days post tumor injection). A Kaplan-Meier survival curve is calculated and plotted (FIG. 1) from the raw data (Table 1). All animals in the RT monotherapy group died by 120 d.

[2] = system: patients with recurrent glioblastoma (GBM); test: Phase IIa trial of cilengitide single agent therapy in patients with recurrent glioblastoma; format: in vivo, human
Experimental: Background: The present phase IIa study was designed to evaluate the safety, toxicity, and clinical activity of the cyclic RGD pentapeptide cilengitide ((=cyclo-(Arg-Gly-Asp-DPhe-NMe-Val)), an inhibitor of integrins αvβ3 and αvβ5, as a single agent at doses of 500 and 2000 mg in patients (pts) with recurrent glioblastoma (GBM).
Methods: In this multicenter, open-label, randomized, uncontrolled study, pts with GBM and measurable disease that had relapsed after previous therapy with temozolomide and radiotherapy were randomized to receive cilengitide at doses of either 500 mg or 2000 mg i.v., 2×/week, until progression.
Histopathology diagnosis and MRI imaging were subject to independent blinded review. The primary endpoint was Progression Free Survival (PFS) at 6 months (mths). Secondary endpoints included response, survival, time to disease progression, safety, tolerability and pharmacokinetics.

[3] = system: patients with newly diagnosed glioblastoma (GBM); test: Phase I/IIa trial of cilengitide and temozolomide with concomitant radiotherapy, then maintenance, in newly diagnosed glioblastoma; format: in vivo, human
Experimental: Patients and methods: Fifty-two pts (PS 0-1: 92%, 2: 8%; median age 57 yrs) after biopsy (n=9/17%) or tumor resection (n=43/83%) were treated with standard TMZ/RT (Stupp et al. NEJM 2005). In addition Cilengitide (500 mg i.v., 2×/week) was started one week before TMZ/RT and given throughout for the duration of chemotherapy or until progression. Primary endpoint was progression free survival rate at 6 months (target: 65%). Patients were followed with MRI every 2 months. Histopathologic diagnosis and MRI imaging were independently reviewed, MGMT promoter methylation status was assessed in 45 (86.5%) pts.

NSCLC (A549) = test: Proliferation assay (vitronectin-coated plates, Alamar Blue); format: cell-based; conditions: A549, 72 hours; concentration held constant in combination with chemotherapeutic agents; read-out: constant EC50 concentration of alpha V integrin blocker
Experimental: A549-DMEM containing 10% FCS (heat-inactivated) plus 2 mM glutamine,
(§1) Briefly, 2.5×10e4 cells/well in RPMI containing 0.5% BSA and 25 mM Hepes pH 7.4 attached to non-tissue culture treated 96-well plates coated with serially diluted vitronectin, fibronectin, fibrinogen and collagen I for 60 minutes at 37° C. After washing to remove unbound cells the relative cell number is determined by incubation with hexosaminidase substrate. The colormetric reaction is read at 405 nm in a Genios plate reader (SLT). Proliferation assay Non-tissue cultures treated 96 well plates are coated using 100 ul/well of a 2 ug/ml vitronectin solution in PBS incubated overnight at 4° C. Cells are plated at 5×10e3 in 100 ul cell culture medium (as described above for each cell line). […] Plates are incubated for 72 hours, after which relative cell number is determined by the addition of 20 ul/well Alamar Blue (Resazurin) (Nakayama et al. 1997). After 4 hours of incubation at 37° C. relative fluorescent intensity is read in a Genios plate reader (SLT) at 535/590 nm (excitation/emission).
(§2) Points are run in triplicate. Reagent blanks, containing media plus colormetric reagent without cells, are run on each plate. Blank values are subtracted from test values and are routinely 5-10% of uninhibited control values. […]

[4] = system: Endothelial Cells (HUVEC); test: as above; format: cell-based; conditions: 72 hours, concentration held constant in combination with chemotherapeutic agents, read-out: constant EC50 concentration of alpha V integrin blocker
Experimental: HUVEC-DMEM containing 10% FCS (heat-inactivated) plus 2 mM glutamine and 1 mM sodium pyruvate.
as §1, §2

various brain tumors = conditions: cited from earlier work

SMILES: CC(C)[C@H]1C(=O)N[C@@H](CCCN=C(N)N)C(=O)NCC(=O)N[C@@H](CC(=O)O)C(=O)N[C@H](Cc2ccccc2)C(=O)N1C [Cilengitide, cyclo-(Arg-Gly-Asp-DPhe-NMeVal)]
- Days Post Implant (survival) ([1]; cilengitide bolus 4 mg/kg i.p. 1 hour pre-irradiation (Rt 25 Gy) plus 7 daily boluses, all Sick (moribund)): 112 days and 113 days and 130 days and 141 days
- Days Post Implant (survival) ([1]; cilengitide bolus 4 mg/kg i.p. 2 hours pre-irradiation (Rt 25 Gy) plus 7 daily boluses, all Sick (moribund)): 120 days and 147 days and 162 days and 196 days
- Days Post Implant (survival) ([1]; cilengitide bolus 4 mg/kg i.p. 4 hours pre-irradiation (Rt 25 Gy) plus 7 daily boluses, Healthy/Alive animals not dead at day shown): 238 days and 254 days
- Days Post Implant (survival) ([1]; cilengitide bolus 4 mg/kg i.p. 8 hours pre-irradiation (Rt 25 Gy) plus 7 daily boluses, Healthy/Alive animals not dead at day shown): 287 days and 257 days
- animals healthy, days post tumor injection ([1]; t-4 and t-8 h groups, cilengitide 4 mg/kg plus 25 Gy): > 230 days
- median Overall Survival (mOS) ([2]; 500 mg arm, i.v. 2x/week): 6.5 mths
- tumor control, dose comparison ([2]; 2000 mg 2x/week versus 500 mg, not statistically significant): trend towards better tumor control
- 12 mth overall survival (OS) rate ([2]; 2000 mg arm, i.v. 2x/week): 37.5%
- median Overall Survival (mOS) ([2]; 2000 mg arm, i.v. 2x/week): 9.9 mths
- Treatment related NCI CTC grade 3 adverse events ([2]; at 500 mg, each in 1 patient): elevated liver enzymes; also recorded: arthralgia/myalgia
- Treatment related NCI CTC grade 3 adverse events ([2]; at 2000 mg, in 1 patient): weight increase/edema
- grade 4 therapy related AEs ([2]; both arms): No grade 4 therapy related AEs
- pts who received 12 or more cycles of therapy ([2]; both arms, 10 pts (n=4 with 500 mg, n=6 with 2000 mg), 1 cycle=4 weeks): 12.3%
- pts still progression-free and on treatment ([2]; both arms, six pts, at time abstract was issued): 7.4%
- cerebral hemorrhage ([2]; possibly related either to the drug or to the disease): One CTC grade 2 cerebral hemorrhage
- single agent activity ([2]; recurrent glioblastoma): advantageous single agent activity
- tolerability ([2]; single agent therapy at two dose levels): tolerated well
- haematological grade 3 and 4 toxicity: neutropenia ([3]; Cilengitide 500 mg plus TMZ/RT, 5/52): 9.6%
- Treatment related non-hematologic grade 3 toxicities, patients ([3]; Cilengitide 500 mg plus TMZ/RT, n=3/52): 5.7%
- PFS-6 rate ([3]; Cilengitide 500 mg plus TMZ/RT, subgroup with methylated MGMT promoter (23/52)): 91%
- tolerability ([3]; combination of Cilengitide and TMZ/RT): well tolerated
- other adverse event ([3]; one patient with a history of sigmoid diverticulosis): sigmoid perforation (grade 2)
- EC50 (NSCLC (A549)): 6 nM
- EC50 [4]: 0.2 nM
- MTD in humans (various brain tumors; human, in vivo): no known MTD
- tolerability (various brain tumors; human, in vivo): very well tolerated
- response (various brain tumors; in some of the GBM patients): an indication of response was seen
